In patent US10259712B2, “Method of stabilizing compounds in water, water compositions thereby, and articles containing said water compositions” (priority 2015, dated 2019):
Where two headings read alike, the source gives them in different places.

Legend:
[1] = initial 50 ppm
Source text: Peroxide test strips supplied by Indigo® Instruments, Part #33815-P100 (referred as “peroxide test strips” or “test strip” herein) were used to determine the amount of hydrogen peroxide in either distilled water or in water infused with dioxytetrahydride gas (referred as “dioxytetrahydride gas-infused water” or “ultra-pure polarized water” herein). Test Strips are capable of measuring peroxide concentrations between 1 and 100 ppm (parts per million). A peroxide test strip was first submerged into 3% water solution of hydrogen peroxide obtained from a drugstore for home use.
A peroxide test strip was submerged into a clear PET-1 bottle (0.5 liter) of distilled water produced by Crystal Springs and another clear PET-1 bottle (0.5 liter) of dioxytetrahydride gas-infused water manufactured by AquaNew, LLC, Sarasota, Fla., respectively. The water produced by AquaNew is highly purified resulting from at least six (6) stages of treatment to obtain on or about 0.3 ppm of Total Dissolved Solids (pharmaceutical-grade water). […] Ten (10) drops of peroxide were added into each sample bottle and a test strip was dipped into each bottle and each bottle was immediately recapped. […] Both bottles with closures were left on a shelf in open light conditions under climate controlled conditions with no direct sunlight.
After two weeks, a test strip was dipped into each bottle and the bottle was immediately recapped. […] The two bottles with closures were placed back onto the shelf.
After four (4) months, another test strip was dipped into each bottle and the bottles were immediately recapped.

[2] = 58° C.
Method: Continuous experiments on the relative stabilization of hydrogen peroxide with different aqueous carriers, that is, types of water, including dioxytetrahydride gas-infused water, were carried out.
Very low concentrations of hydrogen peroxide (1.2 weight %) was added to the various aqueous carriers and measured for percent absorption by potassium permanganate titration.
The samples were tested on day 1, 20, 27 and 34. The tests were accelerated in aging when the temperature of each water sample was maintained at 58° C., approximating close to two years of stabilization.

[3] = Accelerated ageing of chlorine dioxide in aqueous carriers, 75 days at 50° C.; type: physicochemical
Method: A series of dilutions were set up and aged for 75 days at 50° C., (approximately two years of stability of this solution) that creates chlorine dioxide. A solution of chlorine dioxide at a concentration of 0.4 ppm was separately added to dioxytetrahydride gas-infused water and a second sample in tap water. The samples were aged for 75 days at 50° C. Prior to testing the concentration of chlorine dioxide of each sample, a control of chlorine dioxide at a concentration of 0.4 ppm in water was prepared. The concentration of chlorine dioxide measured in the two samples after aging, was 0.4 ppm for the dioxytetrahydride gas-infused water and 0.2 ppm for tap water.
The same protocol was performed on 0.2 ppm concentration of chlorine dioxide and the test results were 0.2 ppm for the dioxytetrahydride gas-infused water and 0.0 ppm in tap water.

[4] = in dioxytetrahydride gas-infused water, throughout the 34 days, initial 1.2 weight %

Row | SMILES | peroxide concentration ([1]; in dioxytetrahydride gas-infused water, after four (4) months) | peroxide concentration ([1]; in dioxytetrahydride gas-infused water, after two weeks, clear PET-1 bottle on shelf in open light) | peroxide concentration ([1]; in distilled water, after four (4) months) | peroxide concentration ([1]; in distilled water, after two weeks, clear PET-1 bottle on shelf in open light) | hydrogen peroxide concentration [2, 4] | percent absorption [2, 4] | hydrogen peroxide concentration ([2]; in tap water, day 20, initial 1.2%) | hydrogen peroxide concentration ([2]; in tap water, day 34, initial 1.2%) | concentration of chlorine dioxide after aging ([3]; in dioxytetrahydride gas-infused water, initial 0.2 ppm) | concentration of chlorine dioxide after aging ([3]; in dioxytetrahydride gas-infused water, initial 0.4 ppm) | concentration of chlorine dioxide after aging ([3]; in tap water, initial 0.2 ppm) | concentration of chlorine dioxide after aging ([3]; in tap water, initial 0.4 ppm)
1 | OO [hydrogen peroxide] | 50 ppm | 50 ppm | 30 ppm | 30 ppm | 1.2% | ~100% | 0.4% | below 0.2% | – | – | – | –
2 | [O][Cl+][O-] [chlorine dioxide] | – | – | – | – | – | – | – | – | 0.2 ppm | 0.4 ppm | 0.0 ppm | 0.2 ppm
